We go through 1 compound from PMC10611578, “Aβ1-6A2V(D) peptide, effective on Aβ aggregation, inhibits tau misfolding and protects the brain after traumatic brain injury” (Molecular Psychiatry, 2023).

As usually defined, the IC50 is the point on the concentration scale where inhibition reaches its midpoint.

Square brackets hold non-standard residues; d marks the D form. Peptide text beside a SMILES is read from it.

The test system of series [1] is tau (P301L mouse brain homogenate), proteinase K. The experiment in a line: Proteolysis of tau in P301L brain homogenate. The class given is biochemical, human tau with P301L mutation, JNPL3 mice. Particulars: 50 µM Aβ1-6A2V-TAT(D), P301L brain homogenate 30 µg protein/100 µL, 30 min at 37 °C with proteinase K (2.5–10 µg/ml).
Series [2] has as its system abnormal tau in WT TBI mouse brain homogenate; C. elegans. The experiment in a line: Locomotor activity of C. elegans exposed to brain homogenate of WT TBI mice 12 months post-injury. The class given is in vivo, Caenorhabditis elegans (Bristol N2). The conditions noted are these: 50 µM peptide, pericontusional tissue 12 months post-injury, 30 µg protein/100 worms/100 µL, 7 days after treatment; N = 30. How it is done: (§1) Bristol N2 nematodes were obtained from the Caenorhabditis elegans Genetic Center (CGC, University of Minnesota, Minneapolis, MN, USA) and propagated at 20 °C on solid Nematode Growth Medium (NGM) seeded with E. coli OP50 (CGC) for food. We used the bleaching technique to prepare age-synchronized animals. C. elegans at the first larval stage were then transferred to fresh NGM plates and grown at 20 °C. At the L3-L4 larval stage, nematodes were collected with M9 buffer, centrifuged, and washed twice with 10 mM PBS (pH 7.4) to eliminate bacteria. […] Homogenates from naive or sham mice were administered to worms as controls for 3xTg-AD and aged WT TBI mice, respectively ((30 µg protein/100 worms/100 µL 10 mM PBS, pH 7.4). As an additional negative control, 10 mM PBS, pH 7.4 (100 worms/100 µL) was administered to nematodes. Worms were then plated onto NGM plates seeded with OP50 E. coli, grown at 20 °C, and transferred every day to new NGM plates seeded with E. coli to avoid overlapping generations. The locomotor activity of nematodes was scored 7 days after the treatment in blind conditions and expressed as the body bends/min [26]. […]

The test system of series [3] is misfolded toxic tau in P301L mouse brain homogenate; C. elegans. The class given is in vivo, Caenorhabditis elegans (Bristol N2). How it is done: as §1, with “bacteria. Worms were incubated for 2 h at room temperature with orbital shaking, in the absence of E. coli, with brain homogenates from Non-tg and P301L mice (30 µg protein/100 worms/100 µL 10 mM PBS, pH 7.4) in the presence or absence of 50 µM Aβ1-6A2V(D), 50 µM TAT, or 0.1–200 µM Aβ1-6A2V-TAT(D). Control worms were treated with 10 mM PBS, pH 7.4 (Vehicle), 50 µM Aβ1-6A2V (D), 50 µM Aβ1-6A2V-TAT(D) or 50 µM TAT (100 worms/100 µL). Pericontusional tissue homogenates from young WT TBI mice 12 months post-injury or aged-matched sham mice were administered to worms (30 µg protein/100 worms/100 µL) in the absence or presence of 50 µM Aβ1-6A2V-TAT(D). Pericontusional tissue homogenates from 3xTg-AD TBI mice, as well as pericontusional tissues from aged WT TBI, previously treated or not with intranasal 50 mg/kg b.w.” for “bacteria.”

The subject of series [4] is C. elegans. Particulars: C. elegans; ref [18]; cited from earlier work.

As to `CC(C)[C@@H](NC(=O)[C@H](N)CC(=O)O)C(=O)N[C@H](CCC(=O)O)C(=O)N[C@H](Cc1ccccc1)C(=O)N[C@H](CCCNC(=N)N)C(=O)N[C@H](Cc1c[nH]cn1)C(=O)NCC(=O)NCC(=O)NCC(=O)NCC(=O)NCC(=O)N[C@H](CCCNC(=N)N)C(=O)N[C@H](CCCCN)C(=O)N[C@H](CCCCN)C(=O)N[C@H](CCCNC(=N)N)C(=O)N[C@H](CCCNC(=N)N)C(=O)N[C@H](CCC(N)=O)C(=O)N[C@H](CCCNC(=N)N)C(=O)N[C@H](CCCNC(=N)N)C(=O)N[C@H](CCCNC(=N)N)C(=O)O` [Aβ1-6A2V-TAT(D)] (H-[dD][dV][dE][dF][dR][dH]GGGGG[dR][dK][dK][dR][dR][dQ][dR][dR][dR]-OH; N-terminus assumed), in series [1], the “Susceptibility of tau to degradation by proteases” value is “increased the susceptibility of tau to degradation by proteases, and this was particularly evident in the presence of proteinase K”. Besides, the “Reversal of toxic effect of WT TBI brain homogenate in C. elegans” value in series [2] is on record as “completely reverted”. In series [3] (0-200 µM peptide, body bends 7 days after treatment), the “Dose dependence of the protection of worms from P301L brain homogenate” value is reported as “The effect was dose-dependent”. Besides, the “Protection of worms from toxicity of P301L brain homogenate” value in series [3] (30 µg protein/100 worms/100 µL, body bends 7 days after treatment, 50 µM peptide) was “protected worms from the toxicity caused by P301L brain homogenates”. Besides, in series [3] (0.1–200 µM peptide, 30 µg protein/100 worms/100 µL, 2 h exposure at room temperature, PBS pH 7.4, body bends 7 days after treatment, three independent experiments (N = 30), read-out: IC50 for protection of worms from P301L brain homogenate toxicity), the half-inhibitory concentration (IC50) is 25.6 µM. The “Passage through the worm's membrane” value in series [4] is listed as “only in the presence of the TAT sequence, Aβ1-6A2V(D) can pass through the worm’s membrane”.
